Experimental data taken from ChEMBL document CHEMBL3507680, “University of Dundee, Gates Library screen for HepG2 cell viability”.

assay: Human HepG2 cell viability assay in 384 well format; assay type: toxicity, cell-based; set-up: dose 125 nL, time 70.5 hour; cytotoxicity at 70.5 h: concentration not given beside the values; settings: HepG2 cells, read-out: Inhibition

Structure (SMILES)	cytotoxicity at 70.5 h [%]
O=C1O[C@@H]2CN(c3ncccn3)C[C@@H]2N1CCCc1ccc(F)cc1	-7.46
COc1ccc(-c2n[nH]cc2C2SCC(=O)Nc3[nH]ncc32)cc1 (centres undefined)	-9.36
CCn1c(C)cc(C(=O)N2CCCC(n3ccnc3C)C2)c1C (centres undefined)	-6.2
Cc1cc(-c2cnn(CCNC(=O)C3CCCO3)c2C2CC2)on1 (centres undefined)	-9.36
Cc1nc2c(c(C)c1CC(=O)NCc1ccccc1F)c(=O)[nH]n2C	-7.35
CC1CCCCN1CCN(C)C(=O)c1cc(CN2CCC(O)CC2)on1 (centres undefined)	-0.898
CN(C)C(=O)CN1C[C@@H]2CC[C@H](C1)N(Cc1c(F)cccc1Cl)C2	-6.28
CC(C)NC(=O)CN1CCSC2(CCCCC2)C1	18.3
Cn1nc(Cn2cccn2)c2c1CN(Cc1ccsc1)C2	-1.91
Cc1nn(C)c2cnn(CC(=O)NCc3ccc4c(c3)OCO4)c12	-3.63
N#CCCCS(=O)(=O)N1CCCC1CC(=O)c1cccs1 (centres undefined)	-6.62
COc1ccc(OCCN2CCOCS2(=O)=O)cc1	-6.02
Nc1cc2c(nn1)CCN(C(=O)CCc1ccc3c(c1)OCO3)C2	-6.15
OC1CCCN(Cc2ccc(F)c3cccnc23)C1 (centres undefined)	-0.871
c1ccc(CN2CC[C@]3(C[C@@H](Oc4ccccn4)CO3)C2)nc1	19.9
Cc1noc(C)c1CCC(=O)N[C@@H]1CCC[C@@H](Oc2cccnc2)[C@@H]1O	-3.39
O=C(c1ccc2c(c1)OCO2)N1C[C@H](OCC2CC2)[C@H]2COC[C@H]21	-8.17
CC(C)Cn1cnnc1C1CCCN1C(=O)OC(C)(C)C (centres undefined)	-0.156
CNC(=O)c1cn(C(C)(C)C)c2ncccc12	-2.43
CC(C)(C)OC(=O)N1CCC(C(=O)NCc2cc3ccccc3[nH]2)C1 (centres undefined)	-2.83
Cc1cc(=O)n2nc(-c3cccs3)nc2n1CC(=O)NC(C)C	-24
Cc1nonc1N1CCN(Cc2nc(CC3CC3)no2)CC1	-2.56

Structure (SMILES)	cytotoxicity at 70.5 h [%]
c1csc(CN2C[C@@H]3OCCN(CC4CCCO4)[C@@H]3C2)c1 (some centres undefined)	-7.54
COc1cc(CN2CCCC2)ccc1OC12CCCN(CC1)C2 (centres undefined)	-18.9
C[C@H](NS(C)(=O)=O)C(=O)NCc1cc(-c2ccco2)n(CC(F)(F)F)n1	-4.57
COc1ccc(CN2CCC3(CCCN(c4ncc(F)cn4)C3)C2)cc1 (centres undefined)	50.3
COCCN(Cc1ccoc1)C(=O)c1cccnc1SC	-0.295
N#Cc1cnc2ccccc2c1N1CCN(CCC(=O)O)CC1	1.24
CCCN1CCCn2c(nc(CNC(=O)c3cnoc3C)cc2=O)C1	16.5
Cc1nc(C2CCCN2C(=O)CC2CCCC2)ncc1C(N)=O (centres undefined)	-4.71
c1cnc(N2CCC(C3CCN(CCCn4cccn4)C3)CC2)nc1 (centres undefined)	0.616
O=C(CCC1CCCN(C(=O)CCN2CCCCO2)C1)N1CCCC1 (centres undefined)	-5.73
CNc1ncc(C(=O)N2CCC(CCc3ccccc3)CC2)cn1	13.7
Cn1cccc1C(=O)NC1(C(=O)NCC2CC2)CCCC1	-11.4
COc1ccc(Br)c(C(=O)NC(CC(=O)O)c2cccs2)c1 (centres undefined)	-11.5
Cc1cccc(=O)n1CCC(=O)N(C)Cc1cccc2ncccc12	-15.2
CN(CCc1ccccc1)c1cnn(Cc2ccccn2)c(=O)c1	-4.29
COCCCN1CCN(c2ncnc3nc(C)cc(C)c23)CC1	-4.17
CCOCC1CN(C(=O)CS(C)(=O)=O)Cc2cnn(C)c21 (centres undefined)	-14.4
CN(C)Cc1cc(-c2nccn2CCc2cccnc2)ccc1O	-5.02
Cc1c(Br)cnn1CC(=O)Nc1ccon1	-7.55
CCCNC(=O)N1CCc2ccc(S(=O)(=O)N3CCN(C)CC3)cc2C1	-16.2
COCCN1C(=O)C[C@@H]2[C@H]1CCN2C(=O)c1ccc[nH]1	-5.24
CCN(Cc1cnn(CC)c1)C(=O)Cn1c(=O)ccc2ccccc21	-5.92
